From ChEMBL document CHEMBL3774336, “Identification of spirooxindole and dibenzoxazepine motifs as potent mineralocorticoid receptor antagonists” (Bioorg Med Chem, 2016) come the findings set out here.

SMILES strings stand for the structures. A value given as a limit tells only on which side of the number the result lay.

Data set [1] has as its target Histamine H1 receptor (Homo sapiens) (UniProt P35367). The data set can be described thus: Inhibition of histamine H1 receptor (unknown origin) at 10 uM.
The target in data set [2] is Cytochrome P450 2C9 (Homo sapiens, UniProt P11712). Description: Inhibition of CYP2C9 (unknown origin). Type of data set: ADME.
Data set [3] has as its target Cytochrome P450 2D6 (Homo sapiens, UniProt P10635). Description: Inhibition of CYP2D6 (unknown origin). Type of data set: ADME.
Data set [4] addresses Cytochrome P450 3A4 (Homo sapiens, UniProt P08684).
Description: Inhibition of CYP3A4 (unknown origin)
Data set [5] is described as follows: Half life of compound in rat liver microsomes. Type of data set: ADME. In general terms: Microsomes from liver hold many membrane-bound enzymes, among them those of drug oxidation.
Data set [6] has as its target T1, Progesterone receptor (Homo sapiens) (UniProt P06401).
T1 sequence (whole entry): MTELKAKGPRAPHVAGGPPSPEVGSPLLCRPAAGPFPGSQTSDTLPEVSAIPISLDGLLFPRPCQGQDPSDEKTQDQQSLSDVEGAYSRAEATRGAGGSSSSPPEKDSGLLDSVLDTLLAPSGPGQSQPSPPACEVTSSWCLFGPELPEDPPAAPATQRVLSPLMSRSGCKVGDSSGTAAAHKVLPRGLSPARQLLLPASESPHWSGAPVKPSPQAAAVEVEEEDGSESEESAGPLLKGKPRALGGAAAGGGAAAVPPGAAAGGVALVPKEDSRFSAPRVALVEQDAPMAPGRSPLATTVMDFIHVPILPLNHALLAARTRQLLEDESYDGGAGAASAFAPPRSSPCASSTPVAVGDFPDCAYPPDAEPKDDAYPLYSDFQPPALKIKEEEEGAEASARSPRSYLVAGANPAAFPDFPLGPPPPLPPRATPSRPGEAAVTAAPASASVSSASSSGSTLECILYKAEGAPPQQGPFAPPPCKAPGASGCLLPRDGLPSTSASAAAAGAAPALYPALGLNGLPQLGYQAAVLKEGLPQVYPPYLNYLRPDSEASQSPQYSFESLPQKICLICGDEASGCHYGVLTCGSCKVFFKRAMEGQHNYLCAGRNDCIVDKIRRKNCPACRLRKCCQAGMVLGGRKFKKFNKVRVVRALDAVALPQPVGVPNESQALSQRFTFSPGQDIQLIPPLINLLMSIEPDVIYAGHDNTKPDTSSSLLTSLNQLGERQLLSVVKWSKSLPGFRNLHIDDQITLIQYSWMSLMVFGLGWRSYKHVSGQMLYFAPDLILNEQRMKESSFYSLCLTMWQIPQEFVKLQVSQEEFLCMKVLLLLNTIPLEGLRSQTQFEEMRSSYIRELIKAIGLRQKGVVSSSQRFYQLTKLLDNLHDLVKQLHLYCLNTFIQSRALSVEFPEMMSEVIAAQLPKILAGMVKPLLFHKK
The data set can be described thus: Inhibition of GST-tagged human progesterone receptor LBD domain expressed in insect cells at 10 uM by Gal4-based fluorescence polarization assay. For orientation: Fluorescence polarisation rises when a labelled molecule tumbles more slowly, as on binding a larger partner.

Data set [7] has as its target T2, Estrogen receptor (Homo sapiens) (UniProt P03372).
T2 sequence (whole entry): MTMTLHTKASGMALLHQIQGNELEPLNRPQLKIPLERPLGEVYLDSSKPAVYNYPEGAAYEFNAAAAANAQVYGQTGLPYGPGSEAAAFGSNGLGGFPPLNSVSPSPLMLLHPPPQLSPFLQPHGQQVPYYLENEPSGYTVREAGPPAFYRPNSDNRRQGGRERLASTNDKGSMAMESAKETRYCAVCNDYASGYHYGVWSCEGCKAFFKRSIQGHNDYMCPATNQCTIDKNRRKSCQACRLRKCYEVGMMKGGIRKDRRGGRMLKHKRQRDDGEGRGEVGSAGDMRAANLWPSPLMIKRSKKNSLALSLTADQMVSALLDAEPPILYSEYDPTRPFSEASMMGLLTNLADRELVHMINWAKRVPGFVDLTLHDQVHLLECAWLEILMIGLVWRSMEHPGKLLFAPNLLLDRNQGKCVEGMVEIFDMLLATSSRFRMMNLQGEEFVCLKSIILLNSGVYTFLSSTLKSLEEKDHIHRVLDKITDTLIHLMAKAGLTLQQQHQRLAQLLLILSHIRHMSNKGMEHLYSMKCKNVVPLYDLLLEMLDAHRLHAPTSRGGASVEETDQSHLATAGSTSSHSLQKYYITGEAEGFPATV
The data set can be described thus: Inhibition of estrogen receptor (unknown origin) at 10 uM by Gal4-based luciferase assay.

Data set [8] concerns T3, Mineralocorticoid receptor (Homo sapiens), P08235 [C808S].
T3 sequence (whole entry): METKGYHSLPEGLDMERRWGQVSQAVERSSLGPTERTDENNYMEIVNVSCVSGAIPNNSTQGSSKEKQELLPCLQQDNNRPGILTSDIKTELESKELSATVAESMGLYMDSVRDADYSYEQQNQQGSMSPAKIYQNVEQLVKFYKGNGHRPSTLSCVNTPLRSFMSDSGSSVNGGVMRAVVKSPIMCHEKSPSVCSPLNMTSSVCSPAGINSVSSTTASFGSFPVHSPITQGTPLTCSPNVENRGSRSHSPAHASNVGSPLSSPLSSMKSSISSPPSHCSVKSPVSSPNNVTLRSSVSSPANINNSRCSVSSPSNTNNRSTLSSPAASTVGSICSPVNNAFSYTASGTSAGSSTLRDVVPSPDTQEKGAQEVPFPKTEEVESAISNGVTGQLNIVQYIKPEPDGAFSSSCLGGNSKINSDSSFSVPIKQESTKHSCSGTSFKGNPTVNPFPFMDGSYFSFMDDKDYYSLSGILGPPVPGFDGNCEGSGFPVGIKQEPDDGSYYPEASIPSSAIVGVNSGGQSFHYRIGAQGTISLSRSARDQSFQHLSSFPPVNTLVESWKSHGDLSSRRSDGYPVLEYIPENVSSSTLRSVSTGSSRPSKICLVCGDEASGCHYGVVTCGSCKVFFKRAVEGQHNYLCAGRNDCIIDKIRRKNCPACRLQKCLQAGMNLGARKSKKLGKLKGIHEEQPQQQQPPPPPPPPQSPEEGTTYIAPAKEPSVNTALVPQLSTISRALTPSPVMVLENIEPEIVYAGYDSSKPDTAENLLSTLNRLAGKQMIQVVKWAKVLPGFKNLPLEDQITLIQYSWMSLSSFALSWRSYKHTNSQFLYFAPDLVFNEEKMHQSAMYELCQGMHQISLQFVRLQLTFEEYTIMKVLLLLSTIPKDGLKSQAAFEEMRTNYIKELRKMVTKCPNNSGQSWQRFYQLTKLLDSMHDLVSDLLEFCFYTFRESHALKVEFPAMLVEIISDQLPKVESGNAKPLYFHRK
Description: (§1) Agonist activity against 6xHis-MBP-fused human MR LBD domain (732 to 984 amino acid residues) C808S mutant expressed in Escherichia coli BL21(DE3) assessed as receptor activation after 16 hrs by luciferase assay.

The target in data set [9] is Mineralocorticoid receptor (Homo sapiens, UniProt P08235, C808S). Described as §1.

Histamine H1 receptor (Homo sapiens), sequence (P35367 whole entry): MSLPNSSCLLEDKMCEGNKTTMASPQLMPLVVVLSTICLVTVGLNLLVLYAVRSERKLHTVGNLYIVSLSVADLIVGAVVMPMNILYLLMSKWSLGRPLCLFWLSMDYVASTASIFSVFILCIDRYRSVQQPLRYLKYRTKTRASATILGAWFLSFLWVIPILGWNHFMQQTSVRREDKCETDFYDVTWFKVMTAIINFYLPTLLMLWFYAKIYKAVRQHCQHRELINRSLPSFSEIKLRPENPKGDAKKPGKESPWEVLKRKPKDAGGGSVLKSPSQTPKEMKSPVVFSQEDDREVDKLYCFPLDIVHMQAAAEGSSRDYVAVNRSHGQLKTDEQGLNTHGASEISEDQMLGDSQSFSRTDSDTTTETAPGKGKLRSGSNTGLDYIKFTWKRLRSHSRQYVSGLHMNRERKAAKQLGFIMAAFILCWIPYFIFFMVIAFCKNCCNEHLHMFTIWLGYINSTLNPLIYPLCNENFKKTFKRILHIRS
Cytochrome P450 2C9, sequence (P11712 whole entry): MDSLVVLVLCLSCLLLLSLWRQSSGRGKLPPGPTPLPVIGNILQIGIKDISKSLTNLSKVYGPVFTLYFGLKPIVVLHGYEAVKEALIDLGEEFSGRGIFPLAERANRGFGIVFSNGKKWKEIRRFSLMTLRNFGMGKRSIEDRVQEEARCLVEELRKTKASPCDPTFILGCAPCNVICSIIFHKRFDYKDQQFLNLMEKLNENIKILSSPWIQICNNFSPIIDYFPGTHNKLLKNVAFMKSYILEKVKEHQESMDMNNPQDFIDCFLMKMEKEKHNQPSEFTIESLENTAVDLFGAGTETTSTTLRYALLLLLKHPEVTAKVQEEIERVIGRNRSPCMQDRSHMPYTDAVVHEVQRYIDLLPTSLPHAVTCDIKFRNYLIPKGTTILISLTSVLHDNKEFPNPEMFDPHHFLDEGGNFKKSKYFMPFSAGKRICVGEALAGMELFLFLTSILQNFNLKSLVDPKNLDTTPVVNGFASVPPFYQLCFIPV
Cytochrome P450 3A4, sequence (P08684 whole entry): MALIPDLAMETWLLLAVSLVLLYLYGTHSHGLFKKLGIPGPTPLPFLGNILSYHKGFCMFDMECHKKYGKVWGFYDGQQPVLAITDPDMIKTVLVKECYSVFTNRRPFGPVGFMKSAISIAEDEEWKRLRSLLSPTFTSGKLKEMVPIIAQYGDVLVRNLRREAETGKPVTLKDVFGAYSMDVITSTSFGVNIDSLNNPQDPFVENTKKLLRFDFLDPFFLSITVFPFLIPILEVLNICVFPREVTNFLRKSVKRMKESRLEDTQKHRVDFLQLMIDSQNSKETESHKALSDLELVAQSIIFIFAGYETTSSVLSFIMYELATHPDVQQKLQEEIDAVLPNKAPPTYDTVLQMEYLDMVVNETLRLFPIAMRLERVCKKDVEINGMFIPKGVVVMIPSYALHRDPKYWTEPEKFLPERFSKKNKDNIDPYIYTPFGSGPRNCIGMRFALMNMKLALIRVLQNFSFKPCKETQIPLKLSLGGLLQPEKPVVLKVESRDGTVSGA
Cytochrome P450 2D6, sequence (P10635 whole entry): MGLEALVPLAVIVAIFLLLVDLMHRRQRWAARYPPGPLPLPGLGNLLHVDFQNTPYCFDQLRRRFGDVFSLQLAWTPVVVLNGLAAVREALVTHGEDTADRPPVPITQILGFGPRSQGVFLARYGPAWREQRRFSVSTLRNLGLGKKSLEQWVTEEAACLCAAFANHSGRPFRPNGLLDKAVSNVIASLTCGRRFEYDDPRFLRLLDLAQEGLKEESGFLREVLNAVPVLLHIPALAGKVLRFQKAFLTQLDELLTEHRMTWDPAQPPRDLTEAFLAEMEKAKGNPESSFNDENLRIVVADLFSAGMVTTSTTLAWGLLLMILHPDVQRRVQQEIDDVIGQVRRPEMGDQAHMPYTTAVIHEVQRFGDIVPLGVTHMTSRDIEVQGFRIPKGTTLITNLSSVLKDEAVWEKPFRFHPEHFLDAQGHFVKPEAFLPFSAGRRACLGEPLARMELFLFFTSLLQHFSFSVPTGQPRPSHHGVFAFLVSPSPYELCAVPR

In general, inhibition refers to the relative decrease from the control value, in per cent. What is called IC50 is the concentration at which inhibition is half-maximal. Usually half-life stands for how long it takes for the measured level to halve. Turning to `CN1CCC2(CC1)C(=O)Nc1cc(/C=C3\c4ccccc4COc4cc(F)ccc43)ccc12`, the inhibition is 97% in data set [1], less than 40% in [6] and less than 40% in [7]. Further, the IC50 in [2] was found to be 2.83 µM; in [3], 7.62 µM; in data set [4], 7.04 µM. This compound also had a half-life in [5] of 31 min.

A word on the EC50: it is the midpoint of the concentration-response curve. Regarding `O=C1COc2ccc(/C=C3\c4ccccc4COc4cc(F)ccc43)cc2N1`, the figures for the inhibition in [1] and in data set [6] were 26% and 98%, respectively. The Activity in [8] turned out to be 31%. Moreover, in data set [9], the EC50 was 0.004 µM.
